# PMC9617636 (Antiviral Research, 2022)
# pEC50: −log10 of the molar value.
# What was measured:
# Format in all cases: cell-based
# [1] = tested on: −1 PRF signal of SARS-CoV-2
# SARS-CoV-2 = test: Antiviral plaque assay in Vero-E6 cells; conditions: Severe acute respiratory syndrome coronavirus 2, Vero C1008, read-out: EC50 (95% CI), SARS-CoV-2 B.1.351 (Beta), Vero-E6
# B.1.1.7 SARS-CoV-2 = tested on: B.1.1.7 SARS-CoV-2
Structure (SMILES),-1PRF inhibition with mutated binding pocket [1],pEC50 (SARS-CoV-2),change in the EC50s after 11 passages in presence of geneticin (B.1.1.7 SARS-CoV-2)
CCNCC1CCN(c2c(F)cc3c(=O)c(C(=O)O)cn(CC)c3c2F)C1 (stereo not shown) [Merafloxacin],significant loss of -1PRF inhibition,,
CN[C@@H]1[C@@H](O)[C@@H](O[C@@H]2[C@@H](O)[C@H](O[C@H]3O[C@H]([C@@H](C)O)[C@@H](O)[C@H](O)[C@H]3N)[C@@H](N)C[C@H]2N)OC[C@]1(C)O [Geneticin],significant loss of -1PRF inhibition,3.89,did not observe any significant change in the EC50s
